In patent US20230365530A1, “QUINAZOLINE-2,4-DIAMINE DERIVATIVE AND PHARMACEUTICAL COMPOSITION FOR PREVENTING OR TREATING CANCER COMPRISING SAME AS ACTIVE INGREDIENT” (THE ASEAN FOUNDATION, priority 2020, published 2023):

target: EHMT2 (Euchromatic histone-lysine N-methyltransferase 2) (Homo sapiens (Human), UniProt Q96KQ7); test: EHMT2 enzyme inhibition, LANCE TR-FRET; assay type: biochemical; conditions: histone H3 peptide, 1 hour at room temperature
Protocol: In order to analyze the enzyme inhibitory efficacy of the compounds of Examples 1 to 89, EHMT2 (Euchromatic histone-lysine N-methyltransferase 2) enzyme activity was measured using the LANCE TR-FRET™ analysis method of Perkin Elmer. When the EHMT2 enzyme is activated, the 9th lysine residue of the biotinylated-histone peptide is methylated and the EU-conjugated antibody is combined to the methylated histone peptide. Then, when the complex is irradiated with light of excitation wavelength, the complex emits light having a wavelength of 665 nm through FRET phenomenon. Accordingly, fluorescence was measured, and IC50 values were calculated through a software to evaluate the EHMT2 enzyme activity inhibitory effect of the compounds of Examples 1 to 89.
Specific experimental methods are as follows. First, the compounds of Examples 1 to 89 of 1 nM to 100 μM (4× conc.) were put into a 384 well plate (25 μL/well), and 2 μM EEMT2/G9a enzyme (4× conc.) was put into the 384 well plate (25 μL/well). The plate was then centrifuged at 1,500 rpm for 5 seconds after sealing the plate with plate sealing foil. After incubating the EHMT2/G9a enzyme, SAM, and the compounds of Examples above at room temperature for 10 minutes, 2 μM histone H3 peptide (4× conc.) was added to the 384-well plate (25 μL/well). After sealing the plate with plate sealing foil and centrifuging at 1,500 rpm for 5 seconds, an enzymatic reaction was performed at room temperature for 1 hour. Upon completion of the enzyme reaction, 5 μL each of 200 nM Ulight™-Streptavidin (4× conc.) and 8 nM Eu-antibody (4× conc.) was added to each well of the plate. The plate was sealed with plate sealing foil, centrifuged at 1,500 rpm for 5 seconds and reacted at room temperature for 1 hour. The signal values were measured with Envision (Ex 320 nm, Em 665 nm), and all background values obtained by reacting without enzyme were deleted from the measured raw data values. Then, the EHMT2 enzyme activity inhibitory effect of the compounds of Examples 1 to 89 was converted into % values, and compared with the EHMT2 activity when treated with 4% DMSO vehicle (=0 nM compound) as 100%.

Sequence of EHMT2 (Euchromatic histone-lysine N-methyltransferase 2) (Q96KQ7 whole entry): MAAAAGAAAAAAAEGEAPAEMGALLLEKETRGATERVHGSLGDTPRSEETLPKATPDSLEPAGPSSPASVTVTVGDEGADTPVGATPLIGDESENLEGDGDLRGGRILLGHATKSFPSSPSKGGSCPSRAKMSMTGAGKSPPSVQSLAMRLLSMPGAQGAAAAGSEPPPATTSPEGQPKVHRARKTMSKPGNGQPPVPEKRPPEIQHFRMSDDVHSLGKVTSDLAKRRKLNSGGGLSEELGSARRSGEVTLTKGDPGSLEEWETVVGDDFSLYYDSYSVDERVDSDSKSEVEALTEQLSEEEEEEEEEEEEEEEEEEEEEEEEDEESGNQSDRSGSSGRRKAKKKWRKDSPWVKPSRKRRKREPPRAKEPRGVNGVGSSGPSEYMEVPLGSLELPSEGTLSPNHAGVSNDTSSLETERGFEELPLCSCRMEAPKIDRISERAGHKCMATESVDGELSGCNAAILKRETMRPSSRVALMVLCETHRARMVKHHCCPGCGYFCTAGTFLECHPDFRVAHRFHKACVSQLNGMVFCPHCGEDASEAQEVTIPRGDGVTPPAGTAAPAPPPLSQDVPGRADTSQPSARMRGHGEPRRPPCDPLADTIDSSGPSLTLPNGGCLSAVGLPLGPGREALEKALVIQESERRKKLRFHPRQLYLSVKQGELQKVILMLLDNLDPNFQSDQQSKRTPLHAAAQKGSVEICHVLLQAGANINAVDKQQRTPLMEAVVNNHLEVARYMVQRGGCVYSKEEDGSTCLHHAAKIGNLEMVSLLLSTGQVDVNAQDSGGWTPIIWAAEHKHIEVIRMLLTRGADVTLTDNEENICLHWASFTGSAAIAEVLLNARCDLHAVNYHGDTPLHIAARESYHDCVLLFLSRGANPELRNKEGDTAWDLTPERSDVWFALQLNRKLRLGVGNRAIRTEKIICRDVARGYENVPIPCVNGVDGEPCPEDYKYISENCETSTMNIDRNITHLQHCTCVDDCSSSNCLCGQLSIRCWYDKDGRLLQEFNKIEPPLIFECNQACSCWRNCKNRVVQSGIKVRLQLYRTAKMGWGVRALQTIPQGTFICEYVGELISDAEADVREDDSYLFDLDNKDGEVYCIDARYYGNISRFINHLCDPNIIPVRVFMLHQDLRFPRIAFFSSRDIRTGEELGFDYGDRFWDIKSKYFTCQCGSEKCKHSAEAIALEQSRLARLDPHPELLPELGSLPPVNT

Row | SMILES | IC50
1 | CCCN1CCC(Nc2nc(N3CCCCC3)nc3cc(C#CCCN4CCCC4)c(OC)cc23)CC1 [Example 67, 6-methoxy-2-(piperidine-1-yl)-N-(1-propylpiperidine-4-yl)-7-(4-(pyrrolidine-1-yl)-1-butyne-1-yl)quinazoline-4-amine] | < 0.1 µM
2 | COc1cc2c(NC3CCN(CCO)CC3)nc(N3CCCC3)nc2cc1C#CCCN1CCCC1 [Example 70, 2-(4-((6-methoxy-2-(pyrrolidine-1-yl)-7-(4-(pyrrolidine-1-yl)-1-butyne-1-yl)quinazoline-4-yl)amino)piperidine-1-yl)ethanol] | < 0.1 µM
3 | COc1cc2c(NCc3cccnc3)nc(N3CCCC3)nc2cc1C#CCCN1CCCC1 [Example 71, 6-methoxy-N-(pyridine-3-ylmethyl)-2-(pyrrolidine-1-yl)-7-(4-(pyrrolidine-1-yl)-1-butyne-1-yl)quinazoline-4-amine] | 0.1 to 1 µM
4 | COc1cc2c(NC3CC(C)(C)NC(C)(C)C3)nc(N3CCCC3)nc2cc1C#CCCN1CCCC1 [Example 73, 6-methoxy-2-(pyrrolidine-1-yl)-7-(4-(pyrrolidine-1-yl)-1-butyne-1-yl)-N-(2,2,6,6-tetramethylpiperidine-4-yl)quinazoline-4-amine] | < 0.1 µM
5 | COc1cc2c(NC3CCN(C4CC4)CC3)nc(N3CC[C@@H](F)C3)nc2cc1C#CCCN1CCCC1 [Example 74, (R)-N-(1-cyclopropylpiperidine-4-yl)-2-(3-fluoropyrrolidine-1-yl)-6-methoxy-7-(4-(pyrrolidine-1-yl)-1-butyne-1-yl)quinazoline-4-amine] | 0.1 to 1 µM
6 | COc1cc2c(NC3CCN(C4CC4)CC3)nc(N3CC[C@H](F)C3)nc2cc1C#CCCN1CCCC1 [Example 75, (S)-N-(1-cyclopropylpiperidine-4-yl)-2-(3-fluoropyrrolidine-1-yl)-6-methoxy-7-(4-(pyrrolidine-1-yl)-1-butyne-1-yl)quinazoline-4-amine] | < 0.1 µM
7 | CCN1CCC(Nc2nc(N3CC[C@@H](F)C3)nc3cc(C#CCCN4CCCC4)c(OC)cc23)CC1 [Example 77, (R)-N-(1-ethylpiperidine-4-yl)-2-(3-fluoropyrrolidine-1-yl)-6-methoxy-7-(4-(pyrrolidine-1-yl)-1-butyne-1-yl)quinazoline-4-amine] | < 0.1 µM
8 | COc1cc2c(NCCN(C)C)nc(N3CC[C@H](F)C3)nc2cc1C#CCCN1CCCC1 [Example 79, (S)-N1-(2-(3-fluoropyrrolidine-1-yl)-6-methoxy-7-(4-(pyrrolidine-1-yl)-1-butyne-1-yl)quinazoline-4-yl)-N2,N2-dimethylethane-1,2-diamine] | 0.1 to 1 µM
9 | CNc1nc(N2CCCC2)nc2cc(C#CCCN3CCCC3)c(OC)cc12 [Example 81, 6-methoxy-N-methyl-2-(pyrrolidine-1-yl)-7-(4-(pyrrolidine-1-yl)-1-butyne-1-yl)quinazoline-4-amine] | 0.1 to 1 µM
10 | CCCN1CCC(Nc2nc(N(C)C)nc3cc(C#CCCN4CCCC4)c(OC)cc23)CC1 [Example 83, 6-methoxy-N2,N-dimethyl-N4-(1-propylpiperidine-4-yl)-7-(4-(pyrrolidine-1-yl)-1-butyne-1-yl)quinazoline-2,4-diamine] | < 0.1 µM
11 | CCCN1CCC(Nc2nc(N3CC[C@@H](F)C3)nc3cc(C#CCCN4CCCC4)c(OC)cc23)CC1 [Example 84, (R)-2-(3-fluoropyrrolidine-1-yl)-6-methoxy-N-(1-propylpiperidine-4-yl)-7-(4-(pyrrolidine-1-yl)-1-butyne-1-yl)quinazoline-4-amine] | < 0.1 µM
12 | COc1cc2c(NC3CCN(C(C)C)CC3)nc(Nc3cnn(C)c3)nc2cc1C#CCCN1CCCC1 [Example 88, N4-(1-isopropylpiperidine-4-yl)-6-methoxy-N2-(1-methyl-1H-pyrazole-4-yl)-7-(4-(pyrrolidine-1-yl)-1-butyne-1-yl)quinazoline-2,4-diamine] | 0.1 to 1 µM

Now from value to compound:

Row | IC50 | SMILES
13 | < 0.1 µM | CCCN1CCC(Nc2nc(N3CCCC3)nc3cc(C#CCCN4CCCC4)c(OC)cc23)CC1 [Example 68, 6-methoxy-N-(1-propylpiperidine-4-yl)-2-(pyrrolidine-1-yl)-7-(4-(pyrrolidine-1-yl)-1-butyne-1-yl)quinazoline-4-amine]
14 | < 0.1 µM | COc1cc2c(NC3CCN(CCO)CC3)nc(N3CCCCC3)nc2cc1C#CCCN1CCCC1 [Example 69, 2-(4-((6-methoxy-2-(piperidine-1-yl)-7-(4-(pyrrolidine-1-yl)-1-butyne-1-yl)quinazoline-4-yl)amino)piperidine-1-yl)ethanol]
15 | < 0.1 µM | CCN1CCC(Nc2nc(N3CC[C@H](F)C3)nc3cc(C#CCCN4CCCC4)c(OC)cc23)CC1 [Example 72, (S)-N-(1-ethylpiperidine-4-yl)-2-(3-fluoropyrrolidine-1-yl)-6-methoxy-7-(4-(pyrrolidine-1-yl)-1-butyne-1-yl)quinazoline-4-amine]
16 | 1 to 10 µM | COc1cc2c(NC3CCN(C4CC4)CC3)nc(N3CC[C@@H](F)C3)nc2cc1C#CCCN(C)C [Example 76, (R)-N-(1-cyclopropylpiperidine-4-yl)-7-(4-(dimethylamino)-1-butyne-1-yl)-2-(3-fluoropyrrolidine-1-yl)-6-methoxyquinazoline-4-amine]
17 | < 0.1 µM | CCN1CCC(Nc2nc(N3CCCC3)nc3cc(C#CCCN4CC[C@H](F)C4)c(OC)cc23)CC1 [Example 78, (S)-N-(1-ethylpiperidine-4-yl)-7-(4-(3-fluoropyrrolidine-1-yl)-1-butyne-1-yl)-6-methoxy-2-(pyrrolidine-1-yl)quinazoline-4-amine]
18 | 0.1 to 1 µM | COc1cc2c(NCCN(C)C)nc(N3CC[C@@H](F)C3)nc2cc1C#CCCN1CCCC1 [Example 80, (R)-N1-(2-(3-fluoropyrrolidine-1-yl)-6-methoxy-7-(4-(pyrrolidine-1-yl)-1-butyne-1-yl)quinazoline-4-yl)-N2,N2-dimethylethane-1,2-diamine]
19 | < 0.1 µM | COc1cc2c(NC3CCN(C(C)C)CC3)nc(N3CCCC3)nc2cc1/C=C/CCN1CCCC1 [Example 85, (E)-N-(1-isopropylpiperidine-4-yl)-6-methoxy-2-(pyrrolidine-1-yl)-7-(4-(pyrrolidine-1-yl)-1-butene-1-yl)quinazoline-4-amine]
20 | 0.1 to 1 µM | COc1cc2c(NC3CCN(C(C)C)CC3)nc(N3CCCC3)nc2cc1/C=C/CCN(C)C [Example 86, (E)-7-(4-(dimethylamino)-1-butene-1-yl)-N-(1-isopropylpiperidine-4-yl)-6-methoxy-2-(pyrrolidine-1-yl)quinazoline-4-amine]
21 | < 0.1 µM | COc1cc2c(NC3CCN(CCO)CC3)nc(N(C)C)nc2cc1C#CCCN1CCCC1 [Example 87, 2-(4-((2-(dimethylamino)-6-methoxy-7-(4-(pyrrolidine-1-yl)-1-butyne-1-yl)quinazoline-4-yl)amino)piperidine-1-yl) ethanol]
22 | < 0.1 µM | COc1cc2c(NC3CCN(CCO)CC3)nc(N3CC[C@@H](F)C3)nc2cc1C#CCCN1CCCC1 [Example 89]
